US20250268903A1, “RXFP1 AGONISTS” (BRISTOL-MYERS SQUIBB COMPANY, priority 2021, published 2025)

Target: T1, human RXFP1 (Homo sapiens, UniProt Q9HBX9)
T1 construct: expressed in transfected cells
T1 sequence (Q9HBX9 1-757): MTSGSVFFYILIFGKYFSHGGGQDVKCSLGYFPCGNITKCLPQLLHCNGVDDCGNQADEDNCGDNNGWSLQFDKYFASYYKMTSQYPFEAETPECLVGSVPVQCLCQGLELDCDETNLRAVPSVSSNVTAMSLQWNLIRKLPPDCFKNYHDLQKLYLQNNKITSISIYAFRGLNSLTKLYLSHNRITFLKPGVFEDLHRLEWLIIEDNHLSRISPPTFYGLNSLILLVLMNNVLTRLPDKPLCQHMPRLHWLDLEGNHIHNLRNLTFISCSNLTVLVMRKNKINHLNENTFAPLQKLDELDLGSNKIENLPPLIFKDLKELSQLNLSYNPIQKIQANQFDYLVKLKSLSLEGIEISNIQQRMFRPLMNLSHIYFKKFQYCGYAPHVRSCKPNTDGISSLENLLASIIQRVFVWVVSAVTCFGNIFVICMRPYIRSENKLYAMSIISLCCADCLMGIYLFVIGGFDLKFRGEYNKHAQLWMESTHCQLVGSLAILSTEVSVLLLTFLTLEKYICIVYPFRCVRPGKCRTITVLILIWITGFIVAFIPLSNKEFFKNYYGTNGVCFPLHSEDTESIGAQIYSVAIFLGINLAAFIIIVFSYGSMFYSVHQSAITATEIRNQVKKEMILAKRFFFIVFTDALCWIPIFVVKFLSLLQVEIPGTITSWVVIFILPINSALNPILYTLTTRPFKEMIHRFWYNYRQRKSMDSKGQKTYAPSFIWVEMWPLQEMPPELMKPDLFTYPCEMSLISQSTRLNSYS
Assay: hRXFP1 HEK293 cAMP assay (HTRF)
Type: cell-based
Conditions: HEK293 cells stably expressing human RXFP1, 30 min at room temperature
Experimental: RXFP1 Cyclic Adenosine Monophosphate (cAMP) Assays. […] Cells were dissociated and suspended in assay buffer. The assay buffer was HBSS buffer (with calcium and magnesium) containing 20 mM HEPES, 0.05% BSA, and 0.5 mM IBMX. Cells (3000 cells per well, except 1500 cell per well for HEK293 cells stably expressing human RXFP1) were added to 384-well Proxiplates (Perkin-Elmer). Cells were immediately treated with test compounds in DMSO (2% final) at final concentrations in the range of 0.010 nM to 50 μM. Cells were incubated for 30 min at room temperature. The level of intracellular cAMP was determined using the HTRF HiRange cAMP assay reagent kit (Cisbio) according to manufacturer's instructions. Solutions of cryptate conjugated anti-cAMP and d2 fluorophore-labelled cAMP were made in a supplied lysis buffer separately. Upon completion of the reaction, the cells were lysed with equal volume of the d2-cAMP solution and anti-cAMP solution. […] The potency and activity of a compound to […] cAMP production was then determined by fitting to a 4-parametric logistic equation from a plot of cAMP level versus compound concentrations.

SMILES	EC50 [nM]
COc1ccc(CCCN2CCOCC2)cc1C(=O)N[C@@H]1C2CCC(/C2=C/C(F)(F)F)[C@@H]1C(=O)Nc1ccc(F)c(C(F)(F)F)c1 (stereo partly drawn) [Example 121, (2S,3R,7Z)-N-[4-fluoro-3-(trifluoromethyl)phe-nyl]-3-{2-methoxy-5-[3-(morpholin-4-yl)propyl]benzamido}-7-(2,2,2-trifluoroethylidene)bi-cyclo[2.2.1]heptane-2-carboxamide]	1070
COc1ccc(CCCNC[C@@H](O)C(F)(F)F)cc1C(=O)N[C@@H]1C2CCC(/C2=C/C(F)(F)F)[C@@H]1C(=O)Nc1ccc(F)c(C(F)(F)F)c1 (stereo partly drawn) [Example 119, (2S,3R,7Z)-N-[4-fluoro-3-(trifluoromethyl)phe-nyl]-3-[2-methoxy-5-(3-{[(2R)-3,3,3-trifluoro-2-hydroxypropyl]amino}propyl)benzamido]-7-(2,2,2-trifluoroethylidene)bi-cyclo[2.2.1]heptane-2-carboxamide]	1800
COc1ccc(C(C)CCO)cc1C(=O)N[C@@H]1C2CCC(/C2=C/C(F)(F)F)[C@@H]1C(=O)Nc1ccc(F)c(C(F)(F)F)c1 (single isomer, unassigned) [Example 61]	603
COc1ccc(COc2c(F)cccc2C(OC(=O)Nc2ccccc2)C(F)(F)F)cc1C(=O)N[C@H]1[C@@H](C(=O)Nc2ccc(F)c(C(F)(F)F)c2)[C@H]2CC[C@@H]1/C2=C\C1CC1 (stereo partly drawn) [Example 364, 1-(2-((3-(((1R,2R,3S,4R,Z)-7-(cyclopropyl-methylene)-3-((4-fluoro-3-(trifluoromethyl)phenyl)carbamoyl)bicyclo[2.2.1]heptan-2-yl)carbamoyl)-4-methoxybenzyl)oxy)-3-fluorophenyl)-2,2,2-trifluoroethyl phenylcarbamate]	1.1
COc1ccc(C2CCCC(OC(=O)Nc3ccccc3)C2)cc1C(=O)N[C@@H]1C2CCC(/C2=C/C(F)(F)F)[C@@H]1C(=O)Nc1ccc(F)c(C(F)(F)F)c1 (single isomer, unassigned) [Example 41]	201
COc1ccc(CCCCCCO)cc1C(=O)N[C@@H]1C2CCC(/C2=C/C(F)(F)F)[C@@H]1C(=O)Nc1ccc(F)c(C(F)(F)F)c1 (stereo partly drawn) [Example 99, (2S,3R,7Z)-N-[4-fluoro-3-(trifluoromethyl)phe-nyl]-3-[5-(6-hydroxyhexyl)-2-methoxybenzamido]-7-(2,2,2-trifluoroethylidene)bi-cyclo[2.2.1]heptane-2-carboxamide]	268
COc1ccc(CCCNC(=O)OC(C)(C)C)cc1C(=O)N[C@@H]1C2CCC(/C2=C/C(F)(F)F)[C@@H]1C(=O)Nc1ccc(F)c(C(F)(F)F)c1 (stereo partly drawn) [Example 109]	2080
COc1ccc(C#CCCCOC(=O)NC2CCC2)cc1C(=O)N[C@@H]1C2CCC(/C2=C/C(F)(F)F)[C@@H]1C(=O)Nc1ccc(F)c(C(F)(F)F)c1 (stereo partly drawn) [Example 80, 5-(3-{[(2R,3S,7Z)-3-{[4-fluoro-3-(trifluoromethyl)phe-nyl]carbamoyl}-7-(2,2,2-trifluoroethylidene)bi-cyclo[2.2.1]heptan-2-yl]carbamoyl}-4-methoxyphenyl)pent-4-yn-1-yl N-cyclobutylcarbamate]	303
COc1ccc(N(Cc2ccccc2)Cc2ccccc2)cc1C(=O)N[C@H]1[C@@H](C(=O)Nc2ccc(F)c(C(F)(F)F)c2)[C@H]2CC[C@@H]1/C2=C\C1CC1 [Example 1, (1R,2S,3R,4R,Z)-7-(cyclopropylmethylene)-3-(5-(dibenzylamino)-2-methoxybenzamido)-N-(4-fluoro-3-(trifluoromethyl)phenyl) bicyclo[2.2.1]heptane-2-carboxamide]	675

Now from value to compound:

EC50 [nM]	SMILES
140	COc1ccc(/C=C/C(=O)N2CCC(S(C)(=O)=O)CC2)cc1C(=O)N[C@H]1[C@@H](C(=O)Nc2ccc(F)c(C(F)(F)F)c2)[C@H]2CC[C@@H]1/C2=C\C1CC1 [Example 317, (1R,2S,3R,4R,7Z)-7-(cyclopropyl-methylidene)-N-[4-fluoro-3-(trifluoromethyl)phenyl]-3-{5-[(1E)-3-(4-methanesulfonyl-piperidin-1-yl)-3-oxoprop-1-en-1-yl]-2-methoxybenzamido} bicyclo[2.2.1]heptane-2-carboxamide]
110	COc1ccc(COCC2CC(F)(F)C2)cc1C(=O)N[C@H]1[C@@H](C(=O)Nc2ccc(F)c(C(F)(F)F)c2)[C@H]2CC[C@@H]1/C2=C\C1CC1 [Example 283, (1R,2S,3R,4R,7Z)-7-(cyclopropyl-methylidene)-3-(5-{[(3,3-difluorocyclobutyl)methoxy]methyl}-2-methoxybenzamido)-N-[4-fluoro-3-(trifluoromethyl)phenyl] bicyclo[2.2.1] heptane-2-carboxamide]
14	COc1ccc(CCC(C)(C)O)cc1C(=O)N[C@@H]1C2CCC(/C2=C/C2CC2)[C@@H]1C(=O)Nc1ccc(F)c(C(F)(F)F)c1 (stereo partly drawn) [Example 90, (2S,3R,7Z)-7-(cyclopropylmethyli-dene)-N-[4-fluoro-3-(trifluoromethyl)phe-nyl]-3-[5-(3-hydroxy-3-methylbutyl)-2-methoxybenzamido] bicyclo[2.2.1]heptane-2-carboxamide]
13.7	COc1ccc(C(=O)N2CCC3(CC2)COC3)cc1C(=O)N[C@H]1[C@@H](C(=O)Nc2ccc(F)c(C(F)(F)F)c2)[C@H]2CC[C@@H]1/C2=C\C1CC1 [Example 246, (1R,2S,3R, 4R,7Z)-7-(cyclopropyl-methylidene)-N-[4-fluoro-3-(trifluoromethyl)phenyl]-3-(2-methoxy-5-{2-oxa-7-azaspiro[3.5]nonane-7-carbonyl}benzamido) bicyclo[2.2.1] heptane-2-carboxamide]
470	COc1ccc(C2=CC(=O)CCC2)cc1C(=O)N[C@@H]1C2CCC(/C2=C/C(F)(F)F)[C@@H]1C(=O)Nc1ccc(F)c(C(F)(F)F)c1 (stereo partly drawn) [Example 34]
26.1	COc1ccc(C2CC(C(=O)N3CCC(O)CC3)C2)cc1C(=O)N[C@H]1[C@@H](C(=O)Nc2ccc(F)c(C(F)(F)F)c2)[C@H]2CC[C@@H]1/C2=C\C1CC1 (stereo partly drawn) [Example 327]
91.2	COc1ccc(/C=C/C(=O)N2CCC(C(F)(F)F)CC2)cc1C(=O)N[C@H]1[C@@H](C(=O)Nc2ccc(F)c(C(F)(F)F)c2)[C@H]2CC[C@@H]1/C2=C\C1CC1 [Example 315]
203	COc1ccc(S(=O)(=O)N2CCO[C@@H](CO)C2)cc1C(=O)NC1C2CCC(/C2=C/C(F)(F)F)[C@@H]1C(=O)Nc1ccc(F)c(C(F)(F)F)c1 (stereo partly drawn) [Example 200, (2S,3R,7Z)-N-[4-fluoro-3-(trifluoromethyl)phe-nyl]-3-(5-{[(2R)-2-(hydroxymethyl)mor-pholin-4-yl]sulfonyl}-2-methoxybenzamido)-7-(2,2,2-trifluoroethylidene)bi-cyclo[2.2.1]heptane-2-carboxamide]
384	COc1ccc(/C=C/C(=O)NCCO)cc1C(=O)N[C@@H]1C2CCC(/C2=C/C(F)(F)F)[C@@H]1C(=O)Nc1ccc(F)c(C(F)(F)F)c1 (stereo partly drawn) [Example 133, (2S,3R,7Z)-N-[4-fluoro-3-(trifluoromethyl)phe-nyl]-3-{5-[(1E)-2-[(2-hydroxyethyl)carba-moyl]eth-1-en-1-yl]-2-methoxybenzamido}-7-(2,2,2-trifluoroethylidene)bi-cyclo[2.2.1]heptane-2-carboxamide]
